The test system of experiment [1] is COV504 cells. Put plainly: Inhibition of cell proliferation (CyQUANT Direct), COV504. The class given is cell-based, human. The note with it: COV504, 72-hour.
Experiment [2] has as its system COV318 cells. Briefly: Inhibition of cell proliferation (CyQUANT Direct), COV318. The class given is cell-based, human. The note with it: COV318, 72-hour.
Experiment [3] concerns the target CDK12 (aa686-1082)/Cyclin K complex (Homo sapiens, UniProt Q9NYV4). Briefly: CDK12 kinase inhibition assay (Caliper/LabChip EZ Reader). The note with it: read-out: CDK12 IC50; CDK12 (aa686-1082)/Cyclin K 50 nM, ATP 2 mM, 3 hr at 27° C.
The subject of experiment [4] is HCC70 cells. Put plainly: Inhibition of cell proliferation (CyQUANT Direct), HCC70. The class given is cell-based, human. The note with it: HCC70, 72-hour.
Experiment [5] concerns the target CDK9/Cyclin T1 complex (Homo sapiens, UniProt P50750). Put plainly: CDK9 kinase inhibition assay (Caliper/LabChip EZ Reader). The note with it: read-out: CDK9 IC50; CDK9/Cyclin T1 8 nM, ATP 2 mM, 15 min at 27° C.
Method: Compounds described herein were assayed for inhibition of CDK7, CDK9, CDK12, and CDK2 activity at Biortus Biosciences (Jiangyin, Jiangsu Province, P.R. of China) using kinase assays for each CDK developed with a Caliper/LabChip EZ Reader (Perkin Elmer, Waltham, Mass.).
Furthermore, the CDK9 inhibition assay used CDK9/Cyclin T1 complex (8 nM) and “5-FAM-CDK9tide” peptide substrate (2 μM, synthesized fluorophore-labeled peptide with the following sequence: 5-FAM-GSRTPMY-NH2 (SEQ ID NO:2) where 5-FAM is defined above and NH2 signifies a C-terminal amide) with 10 mM MgCl2 in the buffer composition listed above. The CDK12 inhibition assay used CDK12 (aa686-1082)/Cyclin K complex (50 nM) and “5-FAM-CDK9tide” (2 μM) as defined above, with 2 mM MgCl2 in the buffer composition above. Additionally, the CDK2 inhibition assay used CDK2/Cyclin E1 complex (0.5 nM) and “5-FAM-CDK7tide” (2 μM; defined above) with 2 mM MgCl2 in the buffer composition above.
The incubation period at 27° C. for each CDK inhibition assay was chosen such that the fraction of phosphorylated peptide product produced in each assay, relative to the total peptide concentration, was approximately 20% (±5%) for the uninhibited kinase (35 min. for CDK7, 35 min. for CDK2, 3 hr. for CDK12, 15 min. for CDK9).
Experiment [6] has as its target CDK7/Cyclin H/MAT1 complex (Homo sapiens, UniProt P50613). Put plainly: CDK7 kinase inhibition assay (Caliper/LabChip EZ Reader). As to conditions: read-out: CDK7 IC50; CDK7/Cyclin H/MAT1 6 nM, ATP 2 mM, 35 min at 27° C.
Experiment [7] deals with MB453 cells. Briefly: Inhibition of cell proliferation (CyQUANT Direct), MB453. The note with it: MB453, 72-hour. The class given is cell-based, human.
Experiment [8] deals with CDK2/Cyclin E1 complex (Homo sapiens, UniProt P24941). Briefly: CDK2 kinase inhibition assay (Caliper/LabChip EZ Reader). The note with it: read-out: CDK2 IC50; CDK2/Cyclin E1 0.5 nM, ATP 2 mM, 35 min at 27° C.

This passage reports IC50 results from US11311542B2, “Inhibitors of cyclin dependent kinase 7 (CDK7)” (Syros Pharmaceuticals, Inc., priority 2018, dated 2022).

For orientation: IC50 means the concentration at which inhibition is half-maximal.

Sequence of CDK9/Cyclin T1 complex (P50750 whole entry): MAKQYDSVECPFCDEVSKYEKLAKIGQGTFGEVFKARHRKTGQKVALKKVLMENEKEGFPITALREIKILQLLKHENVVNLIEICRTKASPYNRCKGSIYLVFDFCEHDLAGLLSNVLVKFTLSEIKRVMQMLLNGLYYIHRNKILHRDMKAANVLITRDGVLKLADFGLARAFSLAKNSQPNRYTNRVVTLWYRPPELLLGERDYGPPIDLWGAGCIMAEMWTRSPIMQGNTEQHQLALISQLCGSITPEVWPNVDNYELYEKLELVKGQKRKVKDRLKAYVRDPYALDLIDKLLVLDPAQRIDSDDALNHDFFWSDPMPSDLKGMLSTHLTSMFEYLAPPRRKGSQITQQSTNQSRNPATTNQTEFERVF
Sequence of CDK9/Cyclin T1 complex (O60563 whole entry partner): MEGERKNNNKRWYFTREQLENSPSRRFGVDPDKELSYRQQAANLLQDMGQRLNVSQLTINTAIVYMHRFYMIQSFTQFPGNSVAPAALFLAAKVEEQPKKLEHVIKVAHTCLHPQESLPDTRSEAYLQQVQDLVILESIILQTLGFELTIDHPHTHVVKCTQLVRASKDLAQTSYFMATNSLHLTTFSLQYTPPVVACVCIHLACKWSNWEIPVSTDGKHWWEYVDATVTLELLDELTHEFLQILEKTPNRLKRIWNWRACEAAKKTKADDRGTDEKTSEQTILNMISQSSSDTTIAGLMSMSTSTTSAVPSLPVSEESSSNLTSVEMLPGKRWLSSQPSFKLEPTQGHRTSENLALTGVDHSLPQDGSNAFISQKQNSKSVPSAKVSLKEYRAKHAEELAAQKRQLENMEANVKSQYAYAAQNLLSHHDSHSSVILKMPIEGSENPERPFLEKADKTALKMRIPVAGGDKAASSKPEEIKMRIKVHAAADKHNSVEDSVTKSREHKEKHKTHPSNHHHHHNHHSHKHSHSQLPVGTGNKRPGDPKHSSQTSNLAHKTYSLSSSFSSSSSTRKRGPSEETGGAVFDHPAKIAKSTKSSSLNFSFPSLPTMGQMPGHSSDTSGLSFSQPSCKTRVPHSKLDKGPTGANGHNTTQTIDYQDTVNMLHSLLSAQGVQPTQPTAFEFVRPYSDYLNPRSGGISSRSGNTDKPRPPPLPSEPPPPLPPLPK
Sequence of CDK12 (aa686-1082)/Cyclin K complex (Q9NYV4 686-1082): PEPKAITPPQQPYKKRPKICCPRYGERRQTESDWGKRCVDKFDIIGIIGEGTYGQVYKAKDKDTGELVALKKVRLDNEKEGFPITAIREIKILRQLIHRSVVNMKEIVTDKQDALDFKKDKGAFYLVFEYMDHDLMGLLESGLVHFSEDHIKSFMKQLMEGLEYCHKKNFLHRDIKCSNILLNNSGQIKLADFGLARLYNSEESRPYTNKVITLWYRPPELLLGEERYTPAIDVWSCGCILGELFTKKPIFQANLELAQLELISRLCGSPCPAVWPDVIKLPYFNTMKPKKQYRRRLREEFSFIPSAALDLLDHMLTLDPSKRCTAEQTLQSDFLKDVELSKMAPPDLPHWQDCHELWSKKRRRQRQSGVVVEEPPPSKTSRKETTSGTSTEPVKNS
Sequence of CDK12 (aa686-1082)/Cyclin K complex (O75909 whole entry partner, the tested form may be a part): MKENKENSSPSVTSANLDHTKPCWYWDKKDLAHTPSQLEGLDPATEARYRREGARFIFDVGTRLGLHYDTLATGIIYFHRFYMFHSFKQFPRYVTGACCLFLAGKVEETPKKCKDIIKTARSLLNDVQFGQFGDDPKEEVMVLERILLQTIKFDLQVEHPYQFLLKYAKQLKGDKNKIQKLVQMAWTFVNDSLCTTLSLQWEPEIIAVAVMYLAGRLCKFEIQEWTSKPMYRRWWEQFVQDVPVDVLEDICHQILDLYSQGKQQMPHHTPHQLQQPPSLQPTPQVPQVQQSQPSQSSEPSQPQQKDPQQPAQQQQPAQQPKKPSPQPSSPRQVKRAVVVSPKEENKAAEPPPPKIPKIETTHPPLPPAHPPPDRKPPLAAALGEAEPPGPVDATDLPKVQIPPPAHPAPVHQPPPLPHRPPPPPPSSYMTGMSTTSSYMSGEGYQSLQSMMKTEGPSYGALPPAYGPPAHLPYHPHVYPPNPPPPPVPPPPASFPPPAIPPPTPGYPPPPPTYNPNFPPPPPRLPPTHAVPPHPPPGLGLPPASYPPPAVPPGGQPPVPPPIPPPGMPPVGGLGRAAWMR
Sequence of CDK7/Cyclin H/MAT1 complex (P50613 whole entry): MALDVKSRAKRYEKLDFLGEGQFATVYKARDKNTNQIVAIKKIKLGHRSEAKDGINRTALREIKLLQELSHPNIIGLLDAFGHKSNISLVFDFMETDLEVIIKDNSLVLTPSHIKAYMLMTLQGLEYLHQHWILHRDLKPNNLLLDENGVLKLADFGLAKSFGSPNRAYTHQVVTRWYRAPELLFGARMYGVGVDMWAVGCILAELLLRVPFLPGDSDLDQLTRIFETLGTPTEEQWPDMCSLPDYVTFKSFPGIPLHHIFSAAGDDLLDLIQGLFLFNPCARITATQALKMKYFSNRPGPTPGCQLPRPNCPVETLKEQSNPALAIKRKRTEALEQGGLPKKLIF
Sequence of CDK7/Cyclin H/MAT1 complex (P51946 whole entry partner): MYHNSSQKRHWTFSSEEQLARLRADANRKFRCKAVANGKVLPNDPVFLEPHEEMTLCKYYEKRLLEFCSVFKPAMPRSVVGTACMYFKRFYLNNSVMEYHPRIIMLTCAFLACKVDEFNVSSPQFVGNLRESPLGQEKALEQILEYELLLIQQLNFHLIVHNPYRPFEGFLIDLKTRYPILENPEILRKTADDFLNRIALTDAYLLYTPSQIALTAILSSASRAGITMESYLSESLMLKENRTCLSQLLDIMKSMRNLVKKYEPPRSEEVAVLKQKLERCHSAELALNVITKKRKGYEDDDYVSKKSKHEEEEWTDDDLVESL
Sequence of CDK7/Cyclin H/MAT1 complex (P51948 whole entry partner): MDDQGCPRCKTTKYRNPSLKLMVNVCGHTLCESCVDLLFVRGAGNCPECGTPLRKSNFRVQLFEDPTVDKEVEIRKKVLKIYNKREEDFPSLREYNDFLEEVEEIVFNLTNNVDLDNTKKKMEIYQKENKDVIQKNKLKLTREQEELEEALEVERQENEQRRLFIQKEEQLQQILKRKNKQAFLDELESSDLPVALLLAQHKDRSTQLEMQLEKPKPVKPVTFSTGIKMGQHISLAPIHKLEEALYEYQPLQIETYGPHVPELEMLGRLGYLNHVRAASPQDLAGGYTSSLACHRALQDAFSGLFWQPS

As to “(S)-tert-butyl 3-((4-(6-(3,5-dimethylisothiazol-4-yl)-1H-pyrrolo[2,3-b]pyridin-3-yl)-5-(trifluoromethyl)pyrimidin-2-yl)amino)piperidine-1-carboxylate [Compound 166]”, the IC50 is under 0.1 µM in experiment [1]; under 0.1 µM in experiment [2]; over 0.5 µM in experiment [3]; under 0.1 µM in experiment [4]; over 0.5 µM in experiment [5]; under 0.03 µM in experiment [6]. Further, the IC50 was under 0.1 µM in experiment [7] and over 0.5 µM in experiment [8].
